ChEMBL document CHEMBL1641419, “Discovery of pyrazolo[1,5-a]pyrimidine-based CHK1 inhibitors: a template-based approach--part 2” (Bioorg Med Chem Lett, 2011)

Legend:
[1] = target: Cyclin-dependent kinase 2/cyclin A (Homo sapiens, UniProt P24941); experiment: Inhibition of recombinant CDK2/Cyclin A expressed in insect Sf9 cells assessed as inhibition of [33P]-ATP incorporation into biotinylated histone H1 after 1 hr by liquid scintillation counting
[2] = target: T1, Serine/threonine-protein kinase Chk1 (Homo sapiens, UniProt O14757)
T1 sequence (O14757 whole entry): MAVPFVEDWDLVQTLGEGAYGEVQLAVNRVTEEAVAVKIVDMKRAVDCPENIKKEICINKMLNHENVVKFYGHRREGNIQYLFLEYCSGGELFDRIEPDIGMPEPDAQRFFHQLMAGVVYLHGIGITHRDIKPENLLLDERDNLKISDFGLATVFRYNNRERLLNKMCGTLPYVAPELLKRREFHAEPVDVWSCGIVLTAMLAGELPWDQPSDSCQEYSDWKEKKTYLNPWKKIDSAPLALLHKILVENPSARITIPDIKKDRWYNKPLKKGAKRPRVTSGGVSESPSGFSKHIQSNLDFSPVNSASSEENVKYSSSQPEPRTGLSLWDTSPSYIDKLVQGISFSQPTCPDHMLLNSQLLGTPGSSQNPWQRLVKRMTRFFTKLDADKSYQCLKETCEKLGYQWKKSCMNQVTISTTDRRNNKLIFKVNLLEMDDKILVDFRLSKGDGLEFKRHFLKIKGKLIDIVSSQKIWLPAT
Description: Inhibition of histidine-tagged recombinant CHK1 expressed in baculovirus expression system after 2 hrs by scintillation proximity assay

| IC50 [1] | IC50 [2] | SMILES |
| --- | --- | --- |
| 28700 nM | 2900 nM | Cn1cc(-c2cnn3c(N)c(Br)c(C4CCCCN4)nc23)cn1 (stereo not drawn) |
| 2800 nM | 87 nM | Cn1cc(-c2cnn3c(N)c(Br)c(CC4CCNCC4)nc23)cn1 |
| 160 nM | – | Cn1cc(-c2cnn3c(N)c(Br)c(C4CCCNC4)nc23)cn1 (stereo not drawn) |
| 150 nM | – | Cn1cc(-c2cnn3c(N)c(Br)c(C4CNCCS4)nc23)cn1 (stereo not drawn) |
| – | 7 nM | Cn1cc(-c2cnn3c(N)c(Br)c(CC4CCCNC4)nc23)cn1 (stereo not drawn) |
| 2200 nM | – | Cn1cc(-c2cnn3c(N)c(-c4ccsc4)c(C4CCCNC4)nc23)cn1 (stereo not drawn) |
| 990 nM | – | Cn1cc(-c2cnn3c(N)c(-c4cccs4)c(C4CCCNC4)nc23)cn1 (stereo not drawn) |
| 330 nM | – | CCc1c(C2CCCNC2)nc2c(-c3cnn(C)c3)cnn2c1N (stereo not drawn) |
| 8300 nM | – | Cn1cc(-c2cnn3c(N)c(-c4ccccc4)c(C4CCCNC4)nc23)cn1 (stereo not drawn) |
| 1500 nM | – | Cn1cc(-c2cnn3c(N)c(-c4cccnc4)c(C4CCCNC4)nc23)cn1 (stereo not drawn) |
| 510 nM | 31 nM | Cn1cc(-c2cnn3c(N)c(Br)c(C4CCNC4)nc23)cn1 (stereo not drawn) |
| 2200 nM | – | COC/C=C/c1c(C2CCCNC2)nc2c(-c3cnn(C)c3)cnn2c1N (stereo not drawn) |
| 310 nM | 3 nM | Cn1cc(-c2cnn3c(N)c(Cl)c(C4CCCNC4)nc23)cn1 (stereo not drawn) |
| 170 nM | – | Cn1cc(-c2cnn3c(N)c(C4CC4)c(C4CCCNC4)nc23)cn1 (stereo not drawn) |
| 440 nM | 5 nM | Cn1cc(-c2cnn3c(N)c(Br)c(C[C@H]4CCC[C@@H](N)C4)nc23)cn1 (relative stereo) |
| 22000 nM | 100 nM | Cn1cc(-c2c(C3CCCNC3)nc3c(-c4cnn(C)c4)cnn3c2N)cn1 (stereo not drawn) |
| 330 nM | – | Cn1cc(-c2cnn3c(N)c(I)c(C4CCCNC4)nc23)cn1 (stereo not drawn) |
| 48 nM | 26 nM | Cn1cc(-c2cnn3c(N)c(CCO)c(C4CCCNC4)nc23)cn1 (stereo not drawn) |
| 520 nM | – | CC#Cc1c(C2CCCNC2)nc2c(-c3cnn(C)c3)cnn2c1N (stereo not drawn) |
| 11000 nM | – | Cn1cc(-c2cnn3c(N)c(-c4ccncc4)c(C4CCCNC4)nc23)cn1 (stereo not drawn) |
| 1700 nM | 100 nM | Cn1cc(-c2cnn3c(N)c(C#N)c(C4CCCNC4)nc23)cn1 (stereo not drawn) |
| 490 nM | 35 nM | Cn1cc(-c2cnn3c(N)c(Br)c(C4CCNCC4)nc23)cn1 |
| 1200 nM | 130 nM | Cn1cc(-c2cnn3c(N)c(Br)c(C4CNCCO4)nc23)cn1 (stereo not drawn) |
| 170 nM | 17 nM | Nc1c(Br)c(C2CCCNC2)nc2c(-c3cccnc3)cnn12 (stereo not drawn) |
| 200 nM | 8 nM | Cc1ncc(-c2cnn3c(N)c(Br)c(C4CCCNC4)nc23)s1 (stereo not drawn) |
| 100 nM | – | Nc1c(Br)c(C2CCCNC2)nc2c(-c3ccoc3)cnn12 (stereo not drawn) |
| 2300 nM | – | Cn1cc(-c2cnn3c(N)c(-c4ccoc4)c(C4CCCNC4)nc23)cn1 (stereo not drawn) |
| – | 34 nM | Cn1cc(-c2cnn3c(N)c(Br)c(CCN)nc23)cn1 |
| – | 7 nM | Cn1cc(-c2cnn3c(N)c(Br)c(CC4CCNC4)nc23)cn1 (stereo not drawn) |
| 1300 nM | 4000 nM | Cn1cc(-c2cnn3c(N)c(Br)c(-c4cccnc4)nc23)cn1 |
